Laboratory results reported in patent publication US20210122763A1, “OGA INHIBITOR COMPOUNDS” (Janssen Pharmaceutica NV, priority 2018, published 2021).

Target: T1, recombinant human Meningioma Expressed Antigen 5 (MGEA5), also referred to as O-GlcNAcase (OGA) (Homo sapiens, UniProt O60502)
T1 construct: Full length OGA enzyme was purchased at OriGene (cat #TP322411); purchased OriGene TP322411
T1 sequence (O60502 1-916): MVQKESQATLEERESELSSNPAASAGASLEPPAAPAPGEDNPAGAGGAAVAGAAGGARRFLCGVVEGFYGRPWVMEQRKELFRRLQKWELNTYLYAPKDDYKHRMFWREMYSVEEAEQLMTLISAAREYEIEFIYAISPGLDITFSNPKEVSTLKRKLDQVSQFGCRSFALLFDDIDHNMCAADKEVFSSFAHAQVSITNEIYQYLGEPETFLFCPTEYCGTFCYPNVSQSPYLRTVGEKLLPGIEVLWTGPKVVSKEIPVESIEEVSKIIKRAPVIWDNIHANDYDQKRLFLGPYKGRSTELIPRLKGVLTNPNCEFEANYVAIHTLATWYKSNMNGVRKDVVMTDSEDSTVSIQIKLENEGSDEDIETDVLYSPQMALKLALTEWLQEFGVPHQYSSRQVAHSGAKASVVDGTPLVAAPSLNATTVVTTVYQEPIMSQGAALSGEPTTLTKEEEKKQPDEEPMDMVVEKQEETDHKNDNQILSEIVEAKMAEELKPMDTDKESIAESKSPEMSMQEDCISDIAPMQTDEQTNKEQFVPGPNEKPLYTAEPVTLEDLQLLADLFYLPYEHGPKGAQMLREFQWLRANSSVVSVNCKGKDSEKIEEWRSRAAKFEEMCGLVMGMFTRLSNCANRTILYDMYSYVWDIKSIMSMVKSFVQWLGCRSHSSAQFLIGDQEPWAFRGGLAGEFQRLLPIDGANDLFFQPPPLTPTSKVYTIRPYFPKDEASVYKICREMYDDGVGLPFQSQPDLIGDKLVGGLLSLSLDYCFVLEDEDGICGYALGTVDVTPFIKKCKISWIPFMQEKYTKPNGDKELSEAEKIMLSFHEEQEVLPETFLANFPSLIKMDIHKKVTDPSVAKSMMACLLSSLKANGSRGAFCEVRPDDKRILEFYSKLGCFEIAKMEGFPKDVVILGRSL
Experiment: OGA biochemical assay (inhibition of FM-GlcNAc hydrolysis, fluorescence)
Details: for Emax: read-out: Enzymatic Emax (%); for IC50: read-out: Enzymatic hOGA, pIC50 (converted)
Procedure, shortened: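 Full-length OGA at 2 nM was pre-incubated 60 min at room temperature with compound, then FM-GlcNAc at 100 uM final was added in citrate/phosphate buffer pH 7.2 with 0.005% Tween-20. After 6 h at room temperature, carbonate pH 11.0 stopped the reaction. Fluorescence read at 485/538 nm; IC50 and Hill coefficient from curve fit against no-inhibitor and saturating-standard controls.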

Row | Emax [%] | IC50 [nM] | Structure (SMILES)
1 | 98 | 6.31 | Cc1cc(OC2CCN([C@H](C)c3nc4c(cc3F)OCCO4)CC2)cc(C)n1 (single isomer, unassigned) [Compound 148]
2 | 96 | 5.01 | Cc1ncc(OC2CCN(C(C)c3nc4c(cc3F)CCO4)CC2)cn1 (centres unmarked) [Compound 95]
3 | 97 | 3.16 | Cc1cc(OC2CCN([C@H](C)c3nc4c(cc3F)CCO4)CC2)cc(C)n1 (single isomer, unassigned) [Compound 144]
4 | 101 | 5.01 | Cc1cc(OC2CCN([C@@H](C)c3nc4nc(C)sc4cc3F)CC2)cc(C)n1 (single isomer, unassigned) [Compound 83]
